Activity calls are given as the source filed them. The rule behind the calls is not given here. Numbered stars: 1 amine (or outer) side, 2 acyl side, 3 side chain; on linkers, the order of the positions; unused ones are H or OH. Square brackets hold non-standard residues; d marks the D form. Peptide text beside a SMILES is read from it. * marks the point of attachment. X1 = N#Cc1cnc2ccc(-c3c(-c4ccc(F)c(Cl)c4)ncn3CCOCN*)nn12; C18 diacid = O=C(O)CCCCCCCCCCCCCCCCC(=O)*; γGlu = O=C(O)[C@H](CCC(=O)[*:2])N[*:1]; PABC = O=C(OCc1ccc(N[*:1])cc1)[*:2]; AEEA = NCCOCCOCC(=O)O
Assays:
[1] = Drug concentration in C57BL/6 mouse plasma at 6 mg/kg,iv and measured after 24 hrs by LC-MS/MS analysis; format: ADME, organism-based
[2] = AUC in C57BL/6 mouse plasma at 6 mg/kg,iv and measured upto 24 hrs by LC-MS/MS analysis; format: ADME, organism-based; design: dose 6 mg/kg, time < 24 hrs, route iv
[3] = Stability in mouse plasma assessed as parent compound remaining after 24 hrs by HPLC-MS analysis; format: ADME, cell-free; settings: read-out: Stability
[4] = Stability in rat plasma assessed as parent compound remaining after 24 hrs by HPLC-MS analysis; format: ADME, cell-free; settings: read-out: Stability
[5] = Prodrug conversion in blood of C57BL/6 mouse xenografted mouse MC38 cells assessed as BMS-986260 Cmax at 8 mg/kg,iv and measured after 72 hrs by LC-MS/MS analysis; format: ADME, organism-based, MC-38; design: dose 8 mg/kg, time 72 hrs, route iv; settings: in vivo
[6] = Prodrug conversion in heart of C57BL/6 mouse xenografted mouse MC38 cells assessed as BMS-986260 Cmax at 8 mg/kg,iv and measured after 72 hrs by LC-MS/MS analysis; format: ADME, organism-based, MC-38; design: dose 8 mg/kg, time 72 hrs, route iv; settings: in vivo
[7] = Prodrug conversion in tumor of C57BL/6 mouse xenografted mouse MC38 cells assessed as BMS-986260 Cmax at 8 mg/kg,iv and measured after 72 hrs by LC-MS/MS analysis; format: ADME, organism-based, Neoplasm, MC-38; design: dose 8 mg/kg, time 72 hrs, route iv; settings: in vivo
[8] = Prodrug conversion in blood of C57BL/6 mouse xenografted mouse MC38 cells assessed as BMS-986260 Tmax at 8 mg/kg,iv and measured after 72 hrs by LC-MS/MS analysis; format: ADME, organism-based, MC-38; settings: in vivo
[9] = Prodrug conversion in heart of C57BL/6 mouse xenografted mouse MC38 cells assessed as BMS-986260 Tmax at 8 mg/kg,iv and measured after 72 hrs by LC-MS/MS analysis; format: ADME, organism-based, MC-38; settings: in vivo
[10] = Prodrug conversion in tumor of C57BL/6 mouse xenografted mouse MC38 cells assessed as BMS-986260 Tmax at 8 mg/kg,iv and measured after 72 hrs by LC-MS/MS analysis; format: ADME, organism-based, Neoplasm, MC-38; settings: in vivo
[11] = Prodrug conversion in blood of C57BL/6 mouse xenografted mouse MC38 cells assessed as BMS-986260 AUC (0 to 72 hrs) at 8 mg/kg,iv and measured after 72 hrs by LC-MS/MS analysis; format: ADME, organism-based, MC-38; design: time 72 hrs, dose 8 mg/kg, route iv; settings: in vivo
[12] = Prodrug conversion in heart of C57BL/6 mouse xenografted mouse MC38 cells assessed as BMS-986260 AUC (0 to 72 hrs) at 8 mg/kg,iv and measured after 72 hrs by LC-MS/MS analysis; format: ADME, organism-based, MC-38; design: time 72 hrs, dose 8 mg/kg, route iv; settings: in vivo
[13] = Prodrug conversion in tumor of C57BL/6 mouse xenografted mouse MC38 cells assessed as BMS-986260 AUC (0 to 72 hrs) at 8 mg/kg,iv and measured after 72 hrs by LC-MS/MS analysis; format: ADME, organism-based, Neoplasm, MC-38; design: time 72 hrs, dose 8 mg/kg, route iv; settings: in vivo
[14] = Prodrug conversion in C57BL/6 mouse xenografted mouse MC38 cells assessed as BMS-986260 ratio of AUC in heart to blood at 8 mg/kg,iv and measured after 72 hrs by LC-MS/MS analysis; format: ADME, organism-based, MC-38; settings: other tissue
[15] = Prodrug conversion in blood of C57BL/6 mouse xenografted mouse MC38 cells assessed as BMS-986260 ratio of AUC in tumor to blood at 8 mg/kg,iv and measured after 72 hrs by LC-MS/MS analysis; format: ADME, organism-based, MC-38; settings: tumour
[16] = Prodrug conversion in blood of C57BL/6 mouse xenografted mouse MC38 cells assessed as BMS-986260 ratio of AUC in tumor to heart at 8 mg/kg,iv and measured after 72 hrs by LC-MS/MS analysis; format: ADME, organism-based, MC-38; settings: in vivo
[17] = Toxicity in C57BL/6 mouse at 80 mg/kg,iv; format: organism-based; settings: in vivo
MC-38 = assay: Antitumor activity against mouse MC38 cells allografted in C57BL/6 mouse assessed as reduction in tumor volume at 40 to 80 mg/kg, iv for 4 weeks in presence of anti-PD-1 antibody; format: functional, organism-based; settings: dose 40-80 mg/kg
[18] = AUC (0 to 24 hrs) in rat at 3 mg/kg,iv for 3 months; format: ADME, organism-based; design: time 3 months, dose 3 mg/kg, route iv; settings: in vivo
[19] = AUC (0 to 72 hrs) in rat at 40 mg/kg,iv for 3 months; format: ADME, organism-based; design: time 3 months, dose 40 mg/kg, route iv; settings: in vivo
[20] = AUC (0 to 72 hrs) in rat at 3 mg/kg,iv for 3 months; format: ADME, organism-based; design: dose 3 mg/kg, time 3 months, route iv; settings: in vivo
[21] = Toxicity in rat assessed as mortality at 3 mg/kg,iv for 3 months; format: organism-based; settings: in vivo, 2190 h

Q: Which results are given for `CC(C)C[C@H](NC(=O)COCCOCCNC(=O)COCCOCCNC(=O)CC[C@H](NC(=O)CC[C@H](NC(=O)CCCCCCCCCCCCCCCCC(=O)O)C(=O)O)C(=O)O)C(=O)N[C@@H](CO)C(=O)NCC(=O)N[C@@H](CCCCN)C(=O)Nc1ccc(COC(=O)NCOCCn2cnc(-c3ccc(F)c(Cl)c3)c2-c2ccc3ncc(C#N)n3n2)cc1` ({C18 diacid-γGlu-γGlu-AEEA-AEEA}-LSGK[PABC]-X1)?
A: concentration at 24 h [1]: 5200 nM; AUC at 24 h [2]: 270 µM·h; remaining at 24 h [3]: 92%; remaining at 24 h [4]: 87%; Cmax [5]: 120 nM; Cmax [6]: 200 nM; Cmax [7]: 310 nM; Tmax [8]: 1 h; Tmax [9]: 8 h; Tmax [10]: 1 h; AUC [11]: 3.9 µM·h; AUC [12]: 6.7 µM·h; AUC [13]: 12 µM·h; Ratio AUC [14]: 1.7; Ratio AUC [15]: 3.1; Ratio AUC [16]: 1.8; Activity [17]: Non-Toxic; Activity (MC-38): Active; AUC(0-t) at 2190 h [18]: 27 µM·h; AUC(0-t) at 2190 h [19]: 81 µM·h; AUC(0-t) at 2190 h [20]: 15 µM·h; Activity [21]: Non-Toxic
